Reference: publication PMC8274517, “Diaryl azo derivatives as anti-diabetic and antimicrobial agents: synthesis, in vitro, kinetic and docking studies” (Journal of Enzyme Inhibition and Medicinal Chemistry, 2021)
Converted amounts (≈) assume the structure as drawn.

Legend:
[1] = system: P. aeruginosa (DR); assay: Antibiofilm assay (crystal violet); format: cell-based; details: 0.5 mg/mL; for inhibition at 500 µg/mL: Pseudomonas aeruginosa, read-out: biofilm inhibition (anti-biofilm potency)
Description: (§1) The antibiofilm activity of the synthesised azo derivatives was assessed by microtitre plate-based crystal violet method[44] against respective bacterial strains i.e. gram-positive (S. aureus, S. aureus (DR)) and gram-negative (P. aeruginosa, P. aeruginosa (DR)). In brief, 10 µL bacterial suspension, 100 µL trypticase soy broth and 10 µL (10 mg/mL) of test compounds were added in the wells in duplicates and incubated at 37 °C overnight. Ampicillin and moxifloxacin were used as positive controls. After the aspiration of planktonic cells, the biofilm was fixed with 99% methanol. The wells were then washed with 0.1 M sterile PBS (pH = 6.9) thrice and air-dried. Then, 200 µL of crystal violet solution (2%) was added to all wells. After 15 min, the excess of the crystal violet dye was removed and the wells were washed again with PBS. Then, the cell-bound crystal violet was dissolved in 33% acetic acid. The biofilm growth was quantified in terms of OD575 nm using an ELISA plate reader and biofilm hydrolysis was calculated by % inhibition formula.

[2] = system: P. aeruginosa (DS); assay: Antibiofilm assay (crystal violet); format: cell-based; details: 0.5 mg/mL
Description: as §1

[3] = system: P. aeruginosa (DR); assay: Antibacterial activity, minimum inhibitory concentration; format: cell-based; set-up: key: R: resistant; S: sensitive
Description: (§2) The prepared azo derivatives were screened for their antibacterial activity against six bacterial strains obtained from hospital isolates i.e. gram positive (S. aureus, S. aureus (DR)) and gram-negative (E. coli, P. aeruginosa, P. aeruginosa (DR), P. vulgaris). All the strains were confirmed by biochemical identification and drug susceptibility methods. The antibacterial evaluation was done by agar disc diffusion method[39]^,[40] and MIC was determined. In summary, a 48-h old inoculum having ∼0.48 OD600, of the above-mentioned bacterial strains was spread on the solidified trypticase soy agar media and Whatman no. 1 filter paper discs (5 mm in diameter) soaked with the title compounds (10 µL/disc of 10 mg/mL) were placed on the plates. Ampicillin and moxifloxacin were used as positive controls and DMSO as negative control respectively.

[4] = system: S. aureus (DR); assay: as above; format: cell-based; set-up: key: R: resistant; S: sensitive
Description: as §2

[5] = system: P. vulgaris; assay: as above; format: cell-based; set-up: key: R: resistant; S: sensitive
Description: as §2

[6] = system: S. aureus (DS); assay: as above; format: cell-based; set-up: key: R: resistant; S: sensitive
Description: as §2

[7] = system: P. aeruginosa (DS); assay: as above; format: cell-based; set-up: key: R: resistant; S: sensitive
Description: as §2

[8] = system: E. coli; assay: as above; format: cell-based; set-up: key: R: resistant; S: sensitive
Description: as §2

[9] = system: α-glucosidase; assay: In vitro α-glucosidase inhibition assay (pNPG substrate); format: biochemical, Saccharomyces Cerevisiae; details: for IC50: means ± SEM of triplicate
Description: The α-glucosidase inhibition assay was performed as described previously. In summary, the stock solution of the enzyme from Saccharomyces Cerevisiae (0.2 U/mL) was prepared in 0.05 M sodium phosphate buffer pH 6.8. […] After incubation, 10 µL of the substrate, p-nitrophenyl α-D-glucopyranoside (pNPG, 5 mM solution in 0.05 M phosphate buffer) was added to the aboveprepared mixture and incubated again under the same experimental conditions. The reaction was stopped with the addition of 0.1 M Na2CO3 and OD405 was taken by a 96-well ELISA reader. The experiment was performed in triplicate.

[10] = system: S. aureus (DS); assay: Antibiofilm assay (crystal violet); format: cell-based; details: 0.5 mg/mL
Description: as §1

[11] = system: S. aureus (DR); assay: Antibiofilm assay (crystal violet); format: cell-based; details: 0.5 mg/mL
Description: as §1

Compound	inhibition at 500 µg/mL [1] [%]	biofilm inhibition [2]	Minimum inhibitory concentration: sensitive/resistant ([3]; 125 µg/200 µL)	Minimum inhibitory concentration: sensitive/resistant ([3]; 250 µg/200 µL)	Minimum inhibitory concentration: sensitive/resistant ([4]; 125 µg/200 µL)	Minimum inhibitory concentration: sensitive/resistant ([4]; 250 µg/200 µL)	Minimum inhibitory concentration: sensitive/resistant ([5]; 125 µg/200 µL)	Minimum inhibitory concentration: sensitive/resistant ([5]; 250 µg/200 µL)	Minimum inhibitory concentration: sensitive/resistant ([6]; 125 µg/200 µL)	Minimum inhibitory concentration: sensitive/resistant ([6]; 250 µg/200 µL)	Minimum inhibitory concentration: sensitive/resistant ([7]; 125 µg/200 µL)	Minimum inhibitory concentration: sensitive/resistant ([7]; 250 µg/200 µL)	Minimum inhibitory concentration: sensitive/resistant ([8]; 125 µg/200 µL)	Minimum inhibitory concentration: sensitive/resistant ([8]; 250 µg/200 µL)	% Inhibition ([9]; 15.62 µg/mL) [%]	% Inhibition ([9]; 31.2 µg/mL) [%]	% Inhibition ([9]; 125 µg/mL) [%]	% Inhibition ([9]; 250 µg/mL) [%]	IC50 [9] [µg/mL]	melting point [°C]	also measured
Oc1ccc(N=Nc2cccnc2Cl)c(O)c1 [TR-7, 4-((2-chloropyridin-3-yl)diazenyl)benzene-1,3-diol]	55	not found active	S	S	R	R	R	R	R	R	R	R	R	R	34	52	77	87	29.7 ± 2.8 (≈ 119 µM)	187 to 189	
penicillin [reference compound]		60%																			biofilm inhibition [10]: 65%
(E)-1-(p-tolyldiazenyl)naphthalen-2-ol [TR-5]			S	S	S	S	R	R	R	R	R	S	S	S	14	22	49	56	153.4 ± 11.5		biofilm inhibition (anti-biofilm potency) [1]: 80%
Oc1ccc(N=Nc2cccnc2Cl)c2ccccc12 [TR-8, 4-((2-chloropyridin-3-yl)diazenyl)naphthalen-1-ol]	80		R	R	R	R	R	R	S	S	R	S	R	R	29	45	75	98	36.7 ± 3.1 (≈ 129 µM)	170 to 175	biofilm hydrolysis efficiency [11]: drastically decreased; biofilm inhibition [10]: greater than 70%
